Laboratory results reported in patent US11753407B2, “Compounds for treating spinal muscular atrophy” (PTC Therapeutics, Inc., priority 2012, dated 2023).

Assays:
[1] = system: SMN2 minigene mRNA (SMN2-A minigene) in HEK293H cells; assay: SMN2 minigene mRNA splicing RT-qPCR assay in cultured cells; type: cell-based, human; settings: Homo sapiens, HEK293-H; concentration increasing full length SMN2 mRNA 1.5-fold relative to vehicle-treated cells; HEK293H cells with SMN2-A minigene, 24 hours, 7-point concentration data; read-out: EC1.5x for production of full length SMN2 mRNA
In short: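 Cells are seeded, left to attach 4-6 h, then dosed with test compound across seven concentrations and incubated 24 h. Lysates undergo RT-qPCR with primers/probe specific to the exon 7-containing minigene transcript, co-amplified with GAPDH. Fold change over vehicle is calculated, and EC1.5× marks the 1.5-fold point.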

[2] = system: Smn protein in SMA patient fibroblast cells (GM03813); assay: Smn protein assay in cultured cells (SMN HTRF); type: cell-based, human; settings: SMA patient fibroblast cells, 48 hours; for EC1.5x for Smn protein expression: 7-point concentration curve, SMN HTRF, concentration producing 1.5 times Smn protein vs DMSO vehicle control; for maximum fold (Fold) increase of Smn protein: 7-point concentration data, fold relative to vehicle control
In short: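 Patient-derived SMA fibroblasts are plated, given compound for 48 h, then lysed in RIPA buffer with protease inhibitors. Lysate Smn is detected by an anti-SMN d2/kryptate HTRF pair incubated overnight. The normalized ΔF is divided by the vehicle ΔF to give fold change, from which EC1.5× and maximum fold are taken.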

melting point [°C] | SMILES | EC (1.5-fold increase) [1] [µM] | EC1.5x for Smn protein expression [2] | maximum fold (Fold) increase of Smn protein [2]
238 to 240 | Cc1cn2nc(-c3cc(=O)n4cc(N5CCN(C)CC5)ccc4n3)cc2c(C2CC2)n1 [Compound 684, 2-(4-cyclopropyl-6-methylpyrazolo[1,5-a]pyrazin-2-yl)-7-(4-methylpiperazin-1-yl)-4H-pyrido[1,2-a]pyrimidin-4-one] | 0.1 to 0.3 | *** (an EC1.5× between >0.3 μM and ≤1 μM is indicated by three stars (***)) | ***** (a fold increase >1.65 is indicated by five stars (*****))
236 to 238 | CCN1CCN(c2ccc3nc(-c4cc5c(C6CC6)nc(C)cn5n4)cc(=O)n3c2)CC1 [Compound 685, 2-(4-cyclopropyl-6-methylpyrazolo[1,5-a]pyrazin-2-yl)-7-(4-ethylpiperazin-1-yl)-4H-pyrido[1,2-a]pyrimidin-4-one] | 0.1 to 0.3 | ** (an EC1.5× between >1 μM and ≤3 μM is indicated by two stars (**)) | **** (a fold increase between >1.5 and ≤1.65 is indicated by four stars (****))
239 to 241 | Cc1cn2nc(-c3cc(=O)n4cc(N5CCN(CCO)CC5)ccc4n3)cc2c(C2CC2)n1 [Compound 686, 2-(4-cyclopropyl-6-methylpyrazolo[1,5-a]pyrazin-2-yl)-7-[4-(2-hydroxyethyl)piperazin-1-yl]-4H-pyrido[1,2-a]pyrimidin-4-one] | 0.3 to 1 | ** (an EC1.5× between >1 μM and ≤3 μM is indicated by two stars (**)) | ***** (a fold increase >1.65 is indicated by five stars (*****))
185 to 187 | CCCN1CCC(c2ccc3nc(-c4cc5c(C)nc(C)cn5n4)cc(=O)n3c2)CC1 [Compound 687, 2-(4,6-dimethylpyrazolo[1,5-a]pyrazin-2-yl)-7-(1-propylpiperidin-4-yl)-4H-pyrido[1,2-a]pyrimidin-4-one] | < 0.1 | **** (an EC1.5x≤0.3 μM is indicated by four stars (****)) | **** (a fold increase between >1.5 and ≤1.65 is indicated by four stars (****))
292 to 294 | Cc1nc2ccc(-c3cc(=O)n4cc(N5CCN(C)CC5)ccc4n3)cc2[nH]1 [Compound 689, 2-(2-methyl-1H-benzimidazol-6-yl)-7-(4-methylpiperazin-1-yl)-4H-pyrido[1,2-a]pyrimidin-4-one] | 0.1 to 0.3 | *** (an EC1.5× between >0.3 μM and ≤1 μM is indicated by three stars (***)) | **** (a fold increase between >1.5 and ≤1.65 is indicated by four stars (****))
283 to 285 | CCN1CCN(c2ccc3nc(-c4ccc5nc(C)[nH]c5c4)cc(=O)n3c2)CC1 [Compound 690, 7-(4-ethylpiperazin-1-yl)-2-(2-methyl-1H-benzimidazol-6-yl)-4H-pyrido[1,2-a]pyrimidin-4-one] | < 0.1 | *** (an EC1.5× between >0.3 μM and ≤1 μM is indicated by three stars (***)) | **** (a fold increase between >1.5 and ≤1.65 is indicated by four stars (****))
215 to 217 | Cc1cn2cc(-c3cc(=O)n4nc(C5CCNCC5)ccc4n3)cc(C)c2n1 [Compound 691, 2-(2,8-dimethylimidazo[1,2-a]pyridin-6-yl)-7-(piperidin-4-yl)-4H-pyrimido[1,2-b]pyridazin-4-one] | < 0.1 | **** (an EC1.5x≤0.3 μM is indicated by four stars (****)) | ***** (a fold increase >1.65 is indicated by five stars (*****))
249 to 251 | Cc1cn2cc(-c3cc(=O)n4nc(C5CCNCC5)ccc4n3)ccc2n1 [Compound 692, 2-(2-methylimidazo[1,2-a]pyridin-6-yl)-7-(piperidin-4-yl)-4H-pyrimido[1,2-b]pyridazin-4-one] | 0.1 to 0.3 | *** (an EC1.5× between >0.3 μM and ≤1 μM is indicated by three stars (***)) | ***** (a fold increase >1.65 is indicated by five stars (*****))
236 to 238 | CCc1nc(C)cn2nc(-c3cc(=O)n4cc(C5CCN(C6COC(C)(C)OC6)CC5)ccc4n3)cc12 [Compound 693, 7-[1-(2,2-dimethyl-1,3-dioxan-5-yl)piperidin-4-yl]-2-(4-ethyl-6-methylpyrazolo[1,5-a]pyrazin-2-yl)-4H-pyrido[1,2-a]pyrimidin-4-one] | 1 to 3 | ** (an EC1.5× between >1 μM and ≤3 μM is indicated by two stars (**)) | **** (a fold increase between >1.5 and ≤1.65 is indicated by four stars (****))
254 to 256 | Cc1cn2cc(-c3cc(=O)n4cc(N5C[C@@H](C)N[C@@H](C)C5)ccc4n3)cc2c(C)n1 [Compound 695, 7-[(3R,5S)-3,5-dimethylpiperazin-1-yl]-2-(1,3-dimethylpyrrolo[1,2-a]pyrazin-7-yl)-4H-pyrido[1,2-a]pyrimidin-4-one] | < 0.1 | **** (an EC1.5x≤0.3 μM is indicated by four stars (****)) | ***** (a fold increase >1.65 is indicated by five stars (*****))
221 to 224 | CCc1cc(-c2cc(=O)n3cc(C4CCNCC4)ccc3n2)cn2cc(C)nc12 [Compound 696, 2-(8-ethyl-2-methylimidazo[1,2-a]pyridin-6-yl)-7-(piperidin-4-yl)-4H-pyrido[1,2-a]pyrimidin-4-one] | < 0.1 | **** (an EC1.5x≤0.3 μM is indicated by four stars (****)) | ***** (a fold increase >1.65 is indicated by five stars (*****))
214 to 218 | CCc1cc(-c2cc(=O)n3cc(C4CCN(C)CC4)ccc3n2)cn2cc(C)nc12 [Compound 697, 2-(8-ethyl-2-methylimidazo[1,2-a]pyridin-6-yl)-7-(1-methylpiperidin-4-yl)-4H-pyrido[1,2-a]pyrimidin-4-one] | < 0.1 | **** (an EC1.5x≤0.3 μM is indicated by four stars (****)) | ***** (a fold increase >1.65 is indicated by five stars (*****))
196 to 200 | CCc1cc(-c2cc(=O)n3cc(C4CCN(CC)CC4)ccc3n2)cn2cc(C)nc12 [Compound 698, 2-(8-ethyl-2-methylimidazo[1,2-a]pyridin-6-yl)-7-(1-ethylpiperidin-4-yl)-4H-pyrido[1,2-a]pyrimidin-4-one] | < 0.1 | **** (an EC1.5x≤0.3 μM is indicated by four stars (****)) | ***** (a fold increase >1.65 is indicated by five stars (*****))
244 to 247 | CCc1cc(-c2cc(=O)n3cc(C4CCN(CCO)CC4)ccc3n2)cn2cc(C)nc12 [Compound 699, 2-(8-ethyl-2-methylimidazo[1,2-a]pyridin-6-yl)-7-[1-(2-hydroxyethyl)piperidin-4-yl]-4H-pyrido[1,2-a]pyrimidin-4-one] | < 0.1 | **** (an EC1.5x≤0.3 μM is indicated by four stars (****)) | ***** (a fold increase >1.65 is indicated by five stars (*****))
217 to 220 | CCc1cc(-c2cc(=O)n3cc(N4CCN(C)[C@H](C)C4)ccc3n2)cn2cc(C)nc12 [Compound 700, 7-[(3R)-3,4-dimethylpiperazin-1-yl]-2-(8-ethyl-2-methylimidazo[1,2-a]pyridin-6-yl)-4H-pyrido[1,2-a]pyrimidin-4-one] | < 0.1 | **** (an EC1.5x≤0.3 μM is indicated by four stars (****)) | ***** (a fold increase >1.65 is indicated by five stars (*****))
179 to 182 | CCc1cc(-c2cc(=O)n3cc(N4CCN(CC)[C@H](C)C4)ccc3n2)cn2cc(C)nc12 [Compound 701, 2-(8-ethyl-2-methylimidazo[1,2-a]pyridin-6-yl)-7-[(3R)-4-ethyl-3-methylpiperazin-1-yl]-4H-pyrido[1,2-a]pyrimidin-4-one] | < 0.1 | **** (an EC1.5x≤0.3 μM is indicated by four stars (****)) | ***** (a fold increase >1.65 is indicated by five stars (*****))
224 to 233 | Cc1cn2nc(-c3cc(=O)n4cc(C5CCN(CCO)CC5)cc(C)c4n3)cc2c(C)n1 [Compound 703, 2-(4,6-dimethylpyrazolo[1,5-a]pyrazin-2-yl)-7-[1-(2-hydroxyethyl)piperidin-4-yl]-9-methyl-4H-pyrido[1,2-a]pyrimidin-4-one] | < 0.1 | **** (an EC1.5x≤0.3 μM is indicated by four stars (****)) | ***** (a fold increase >1.65 is indicated by five stars (*****))
